From US7655767B2, “Use of thiazolyl-pyridinium based dyes in optical layers for optical data recording” (priority 2004, dated 2010) come the findings set out here.

The structures appear in SMILES notation. Bounds are passed on as bounds.

What is called solubility is how much of the substance goes into solution per volume.

A short description of data set [1]: Thermal decomposition (TGA / DSC). The format is physicochemical. The source says:
The optical and thermal properties of the thiazolyl-pyridinium based dye compounds were studied. The dyes show high absorption at the desired wavelengths. In addition, the shape of the absorption spectra, that still remains critical to the disc reflectivity and formation of clean mark edges, are composed of one major band, comprised in a range of from 350 to 500 nm, preferably of from 350 to 400 nm.
Sharp threshold of thermal decomposition within the required temperature range characterizes the new thiazolylpyridinium based dyes which are assumed to be desirable for the application in optical layers for optical data recording.

Data set [2] is described as follows: Solubility in 2,2,3,3-tetrafluoropropanol. To be noted: 20 °C, organic solvent or mixture.

For the compound `COc1ccc(-c2csc(-c3cc[n+](C(C)C)cc3)n2)cc1` [Example 11], in data set [1], the “TGA (decomp.)” value was 240 °C. For the same compound, the solubility in data set [2] was more than 50 mg/mL.
Regarding `C[n+]1ccc(-c2nc(C(C)(C)C)cs2)cc1.[I-]` [Example 8, 1-methyl-4-[4-tert-butyl-thiazolyl-(2)]-pyridiniumiodide], in data set [2], the solubility is more than 5e-05 mg/mL.
With `C[n+]1ccc(-c2nc3ccc(Cl)cc3s2)cc1.[I-]` [Example 12, 1-methyl-4-(6-chlor-benzothiazol-2-yl)pyridinium iodide], the “TGA (decomp.)” value in data set [1] was 244 °C. Moreover, in data set [2], the solubility is more than 50 mg/mL.
Turning to `C[n+]1ccc(-c2nc(-c3ccccc3)cs2)cc1.[I-]` [Example 9, 1-methyl-4-[4-phenyl-thiazolyl-(2)]-pyridinium iodide], the “TGA (decomp.)” value in data set [1] worked out at 260 °C. The solubility in data set [2] was more than 30 mg/mL.
Consider `COc1ccc(-c2csc(-c3cc[n+](C)cc3)n2)cc1.[I-]` [Example 10, 4-[4-(4-methoxy-phenyl)-thiazol-2-yl]-1-methyl-pyridinium iodide], for which, in data set [1], the “TGA (decomp.)” value turned out to be 250 °C. In addition, the solubility in data set [2] was more than 50 mg/mL.
Turning to `CC(C)[n+]1ccc(-c2nc(-c3ccccc3)cs2)cc1.[I-]` [Example 7, 1-isopropyl-4-[4-phenyl-thiazolyl-(2)]-pyridiniumiodide], in data set [1], the “TGA (decomp.)” value was 270 °C. For the same compound, the solubility in data set [2] was more than 50 mg/mL.
